# Test results reported in patent publication US10051861B2, “N-arylamidine-substituted trifluoroethyl sulfide derivatives as acaricides and insecticides” (BAYER CROPSCIENCE AG, priority 2011, dated 2018).
# System: greenhouse red spider mite (Tetranychus urticae)
# Test: Tetranychus urticae spray test, OP-resistant (TETRUR), bean leaf disks
# Type: in vivo
# Conditions: Tetranychus urticae, foliar, 144 h, application rate 100 g/ha, after 6 days; read-out: efficacy (spider mites killed)
# Protocol: After 6 days, the effect in % is determined.
row,Structure (SMILES),pest or weed control at 100 g/ha
1,Cc1cc(F)c(/N=C(\N)c2cccs2)cc1SCC(F)(F)F [Ia-181],90%

# Same assay, conditions: Tetranychus urticae, foliar, 144 h, application rate 500 g/ha, after 6 days; read-out: efficacy (spider mites killed)
row,Structure (SMILES),pest or weed control at 500 g/ha
1,N/C(=N\c1cc(SCC(F)(F)F)c(Cl)cc1Cl)C1CCCCC1 [Ia-156],100%
2,Cc1cc(F)c(/N=C(\NC2CC2)c2ccc(Cl)nc2)cc1SCC(F)(F)F [Ia-158],100%
3,CN/C(=N/c1cc(SCC(F)(F)F)c(C)cc1F)c1ccc(C(F)(F)F)nc1 [Ia-159],90%
4,Cc1cc(F)c(/N=C(\c2ccc(C(F)(F)F)nc2)N(C)C)cc1SCC(F)(F)F [Ia-160],90%
5,Cc1cc(F)c(/N=C(\N)C2CCCC2)cc1SCC(F)(F)F [Ia-161],100%
6,CN/C(=N\c1cc(SCC(F)(F)F)c(C)cc1F)C1CC1 [Ia-163],100%
7,Cc1cc(C)c(SCC(F)(F)F)cc1/N=C(/c1cccnc1)N(C)C [Ia-167],90%
8,CN/C(=N/c1cc(SCC(F)(F)F)c(C)cc1F)c1ccc(Cl)nc1 [Ia-168],90%
9,Cc1cc(F)c(/N=C(\N)C2CCCCC2)cc1SCC(F)(F)F [Ia-169],90%
10,N/C(=N\c1cc(SCC(F)(F)F)c(Cl)cc1Cl)c1ccncc1 [Ia-172],90%
11,N#CC/C(N)=N/c1cc(SCC(F)(F)F)c(Cl)cc1Cl [Ia-173],90%
12,CN/C(=N\c1cc(SCC(F)(F)F)c(C)cc1C)c1ccc(Cl)cc1 [Ia-176],90%
13,CN/C(=N\c1cc(SCC(F)(F)F)c(Cl)cc1Cl)c1cccc(Cl)c1 [Ia-177],90%
14,C/C=C/C=C/C(=N/c1cc(SCC(F)(F)F)c(C)cc1F)NC(C)CC (centres unmarked) [Ia-178],90%
15,Cc1cc(F)c(/N=C(/N2CCCC2)C(F)(F)F)cc1SCC(F)(F)F [Ia-180],90%
16,Cc1cc(C)c(SCC(F)(F)F)cc1/N=C1\SCC(=O)N1C1CC1 [Ia-187],100%
17,Cc1cc(F)c(/N=C2\SCC(=O)N2CC(F)F)cc1SCC(F)(F)F [Ia-188],100%

row,Structure (SMILES),pest or weed control at 500 g/ha
1,Cc1cc(C)c(SCC(F)(F)F)cc1/N=C(\N)c1cnccn1 [Ia-190],90%
2,O=C1CS/C(=N\c2cc(SCC(F)(F)F)c(Cl)cc2F)N1CC(F)(F)F [Ia-192],90%
3,Cc1cc(F)c(/N=C(/c2ccccc2)N(C)C)cc1SCC(F)(F)F [Ia-193],100%
4,O=C1CS/C(=N\c2ccc(Cl)c(SCC(F)(F)F)c2)N1CC(F)(F)F [Ia-194],100%
5,Cc1ccc(/N=C2\SCC(=O)N2CC(F)(F)F)cc1SCC(F)(F)F [Ia-195],100%
6,O=C1CS/C(=N\c2cc(SCC(F)(F)F)c(Cl)cc2Cl)N1C1CC1 [Ia-196],90%
7,Cc1cc(F)c(/N=C2\SCC(=O)N2C2CC2)cc1SCC(F)(F)F [Ia-197],100%
8,Cc1cc(F)c(/N=C2\CCCN2C(C)C(F)(F)F)cc1SCC(F)(F)F (centres unmarked) [Ia-201],100%
9,CN/C(=N/c1cc(SCC(F)(F)F)c(C)cc1F)c1cccc(C(F)(F)F)c1 [Ia-203],100%
10,CN(C)/C(=N\c1cc(SCC(F)(F)F)c(Cl)cc1Cl)c1ccccc1 [Ia-205],100%
11,N/C(=N\c1cc(SCC(F)(F)F)c(Cl)cc1Cl)c1cnccn1 [Ia-208],100%
12,CN(C)/C(=N\c1cc(SCC(F)(F)F)c(Cl)cc1Cl)c1ccc(Cl)cc1 [Ia-211],100%
13,Cc1cc(F)c(/N=C(\c2cccc(C(F)(F)F)c2)N(C)C)cc1SCC(F)(F)F [Ia-212],90%
14,Cc1ccc(/N=C(/N)C(F)(F)F)cc1SCC(F)(F)F [Ia-213],100%
15,CN/C(=N\c1cc(SCC(F)(F)F)c(C)cc1C)c1ccccn1 [Ia-214],100%
16,Cc1cc(F)c(/N=C(/N)c2ccc(Cl)cc2)cc1SCC(F)(F)F [Ia-215],90%
17,Cc1cc(F)c(/N=C(/CC(F)(F)F)N(C)C)cc1SCC(F)(F)F [Ia-216],90%
